{"source": "DBAASP", "test_in_all_cases": "≥ marks a high value that may be exact or a test limit, other limits are often not marked, values filed in µg/mL are converted to µM", "key": {"[1]": {"tested_on": "Candida albicans ATCC 10231"}, "[2]": {"tested_on": "Escherichia coli ATCC 25922"}, "Aureobasidium pullulans": {"tested_on": "Aureobasidium pullulans"}, "[3]": {"tested_on": "Staphylococcus aureus ATCC 9144"}, "[4]": {"tested_on": "Staphylococcus epidermidis ATCC 35984"}, "[5]": {"tested_on": "Pseudomonas aeruginosa ATCC 27853"}, "[6]": {"tested_on": "Bacillus subtilis ATCC 23857"}, "[7]": {"tested_on": "Corynebacterium glutamicum ATCC 13032"}, "Cladosporium sp.": {"tested_on": "Cladosporium sp."}, "Saccharomyces cerevisiae": {"tested_on": "Saccharomyces cerevisiae"}, "[8]": {"tested_on": "Escherichia coli MC4100 NR698"}, "[9]": {"tested_on": "Pseudomonas aeruginosa ATCC 15692"}, "[10]": {"tested_on": "Staphylococcus epidermidis 5179-R1"}, "[11]": {"tested_on": "Enterococcus faecium 091299"}, "[12]": {"tested_on": "Psychrobacter faecalis X29"}, "[13]": {"tested_on": "Enterobacter cloacae CGMCC 1.57"}, "[14]": {"tested_on": "Nocardia asteroides 201118"}, "[15]": {"tested_on": "Staphylococcus aureus ATCC 25923"}, "Candida glabrata 090902": {"tested_on": "Candida glabrata 090902"}, "[16]": {"tested_on": "Enterococcus faecalis 981"}, "[17]": {"tested_on": "Klebsiella pneumoniae 08040724"}, "[18]": {"tested_on": "Pseudomonas aeruginosa CGMCC 1.860"}, "[19]": {"tested_on": "Pseudomonas aeruginosa 0108"}, "Escherichia coli": {"tested_on": "Escherichia coli"}, "[20]": {"tested_on": "Staphylococcus aureus A170"}, "Salmonella typhimurium": {"tested_on": "Salmonella typhimurium"}, "[21]": {"tested_on": "Staphylococcus epidermidis"}, "Vibrio fluvialis": {"tested_on": "Vibrio fluvialis"}, "Vibrio anguillarum": {"tested_on": "Vibrio anguillarum"}, "Vibrio parahaemolyticus": {"tested_on": "Vibrio parahaemolyticus"}, "Vibrio alginolyticus": {"tested_on": "Vibrio alginolyticus"}, "Staphylococcus aureus": {"tested_on": "Staphylococcus aureus"}, "Trichoderma viride": {"tested_on": "Trichoderma viride"}, "[22]": {"tested_on": "Pectobacterium carotovorum"}, "Escherichia coli D22": {"tested_on": "Escherichia coli D22"}, "Bacillus subtilis": {"tested_on": "Bacillus subtilis"}, "Neurospora crassa": {"tested_on": "Neurospora crassa"}, "Fusarium culmorum": {"tested_on": "Fusarium culmorum"}, "Ascochyta pisi": {"tested_on": "Ascochyta pisi"}, "Aerococcus viridans": {"tested_on": "Aerococcus viridans"}, "Micrococcus luteus": {"tested_on": "Micrococcus luteus"}, "Bacillus megaterium": {"tested_on": "Bacillus megaterium"}, "Klebsiella pneumoniae": {"tested_on": "Klebsiella pneumoniae"}, "Botrytis cinerea": {"tested_on": "Botrytis cinerea"}, "Enterobacter cloacae": {"tested_on": "Enterobacter cloacae"}, "Pediococcus acidilactici": {"tested_on": "Pediococcus acidilactici"}, "Fusarium haematococcum": {"tested_on": "Fusarium haematococcum"}, "Escherichia coli D31": {"tested_on": "Escherichia coli D31"}, "Alternaria brassicicola": {"tested_on": "Alternaria brassicicola"}}, "data": [{"smiles": "CC[C@H](C)[C@H](NC(=O)[C@@H](N)CC(=O)O)C(=O)NCC(=O)N[C@@H](CCCCN)C(=O)N[C@@H](Cc1ccc(O)cc1)C(=O)N[C@@H](CS)C(=O)NCC(=O)N[C@@H](Cc1ccc(O)cc1)C(=O)N[C@@H](C)C(=O)N[C@@H](Cc1cnc[nH]1)C(=O)N[C@@H](C)C(=O)N[C@@H](CC(C)C)C(=O)N[C@@H](CC(N)=O)C(N)=O", "note": "[DIGKYCGYAHALN]", "values": [{"measurement": "MIC", "setting": "[1]", "result": "> 100", "unit": "µM"}, {"measurement": "MIC", "setting": "[2]", "result": "> 100", "unit": "µM"}, {"measurement": "MIC", "setting": "Aureobasidium pullulans", "result": "≥ 100", "unit": "µM"}, {"measurement": "MIC", "setting": "[3]", "result": "≥ 100", "unit": "µM"}, {"measurement": "MIC", "setting": "[4]", "result": "≥ 100", "unit": "µM"}, {"measurement": "MIC", "setting": "[5]", "result": "> 100", "unit": "µM"}, {"measurement": "MIC", "setting": "[6]", "result": "≥ 100", "unit": "µM"}, {"measurement": "MIC", "setting": "[7]", "result": "≥ 100", "unit": "µM"}, {"measurement": "MIC", "setting": "Cladosporium sp.", "result": "≥ 100", "unit": "µM"}, {"measurement": "MIC", "setting": "Saccharomyces cerevisiae", "result": "≥ 100", "unit": "µM"}, {"measurement": "MIC", "setting": "[8]", "result": "≥ 100", "unit": "µM"}, {"measurement": "MIC", "setting": "[9]", "result": "≥ 100", "unit": "µM"}, {"measurement": "MIC", "setting": "[10]", "result": "≥ 100", "unit": "µM"}]}, {"smiles": "CC[C@H](C)[C@H](NC(=O)CNC(=O)[C@@H](NC(=O)[C@H](C)NC(=O)[C@H](C)NC(=O)[C@H](CCCCN)NC(=O)[C@@H](NC(=O)[C@H](CC(C)C)NC(=O)CNC(=O)[C@@H]1CCCN1C(=O)[C@H](CC(C)C)NC(=O)[C@@H](N)Cc1ccccc1)[C@@H](C)CC)C(C)C)C(=O)NCC(=O)N[C@@H](CO)C(=O)N[C@H](C(=O)N[C@H](C(=O)N[C@@H](Cc1ccccc1)C(=O)N[C@H]1CSSC[C@@H](C(=O)O)NC(=O)[C@H](CCCCN)NC(=O)[C@H](CCCCN)NC(=O)[C@H](CO)NC(=O)[C@H]([C@@H](C)CC)NC(=O)[C@H](CCCCN)NC1=O)[C@@H](C)CC)[C@@H](C)O", "note": "[FLPGLIKAAVGIGSTIFCKISKKC]", "values": [{"measurement": "MIC", "setting": "[1]", "result": 50, "unit": "µM"}, {"measurement": "MIC", "setting": "[2]", "result": 100, "unit": "µM"}, {"measurement": "MIC", "setting": "[11]", "result": "≥ 100", "unit": "µM"}, {"measurement": "MIC", "setting": "[12]", "result": 25, "unit": "µM"}, {"measurement": "MIC", "setting": "[13]", "result": "≥ 100", "unit": "µM"}, {"measurement": "MIC", "setting": "[14]", "result": 3.1, "unit": "µM"}, {"measurement": "MIC", "setting": "[15]", "result": 6.3, "unit": "µM"}, {"measurement": "MIC", "setting": "Candida glabrata 090902", "result": 6.3, "unit": "µM"}, {"measurement": "MIC", "setting": "[16]", "result": 3.1, "unit": "µM"}, {"measurement": "MIC", "setting": "[17]", "result": "≥ 100", "unit": "µM"}]}, {"smiles": "CC[C@H](C)[C@H](N)C(=O)N[C@@H](CCCCN)C(=O)N[C@@H](CCCCN)C(=O)N[C@H](C(=O)N[C@@H](Cc1c[nH]c2ccccc12)C(=O)N[C@@H](CO)C(=O)N[C@@H](CCCCN)C(=O)N[C@H](C(=O)N[C@@H](CCCCN)C(=O)N[C@@H](CCCCN)C(=O)N[C@@H](CC(C)C)C(=O)N[C@@H](CC(C)C)C(=O)N[C@@H](CCCCN)C(N)=O)[C@@H](C)CC)[C@@H](C)CC", "note": "[IKKIWSKIKKLLK]", "values": [{"measurement": "MIC", "setting": "[18]", "result": 6.25, "unit": "µM"}, {"measurement": "MIC", "setting": "[19]", "result": 12.5, "unit": "µM"}]}, {"smiles": "CC[C@H](C)[C@H](NC(=O)[C@@H]1CCCN1C(=O)[C@H](CC(C)C)NC(=O)[C@@H](N)CC(C)C)C(=O)N[C@H](C(=O)NCC(=O)N[C@@H](CC(N)=O)C(=O)N[C@@H](CC(C)C)C(=O)N[C@@H](CC(C)C)C(=O)N[C@@H](CCCCN)C(=O)N[C@@H](CO)C(=O)N[C@@H](CC(C)C)C(=O)N[C@@H](CC(C)C)C(=O)O)C(C)C", "note": "[LLPIVGNLLKSLL]", "values": [{"measurement": "MIC", "setting": "Escherichia coli", "result": "> 71.8", "unit": "µM"}, {"measurement": "MIC", "setting": "[20]", "result": 17.9, "unit": "µM"}, {"measurement": "MIC", "setting": "Salmonella typhimurium", "result": "≥ 71.8", "unit": "µM"}, {"measurement": "MIC", "setting": "[21]", "result": 21.5, "unit": "µM"}]}, {"smiles": "CSCC[C@H](NC(=O)[C@H](CO)NC(=O)[C@H](CC(C)C)NC(=O)[C@H](Cc1cnc[nH]1)NC(=O)[C@H](CO)NC(=O)[C@@H](N)CCC(N)=O)C(=O)N[C@H]1CSSC[C@@H](C(=O)N[C@@H](CCCCN)C(=O)N[C@@H](Cc2ccccc2)C(=O)O)NC(=O)[C@@H]2CSSC[C@@H]3NC(=O)[C@@H]4CSSC[C@H](NC(=O)[C@H](Cc5ccc(O)cc5)NC(=O)[C@H](CCCN=C(N)N)NC1=O)C(=O)N[C@@H](CSSC[C@H](NC(=O)CNC(=O)[C@H](CCCCN)NC(=O)[C@H](CC(N)=O)NC(=O)[C@H](CC(N)=O)NC(=O)[C@H](CCCN=C(N)N)NC3=O)C(=O)NCC(=O)N[C@@H](Cc1ccccc1)C(=O)N2)C(=O)N[C@@H](CC(N)=O)C(=O)N4", "note": "[QSHLSMCRYCCNCCRNNKGCGFCCKF]", "values": [{"measurement": "MIC", "setting": "Vibrio fluvialis", "result": 25, "unit": "µM"}, {"measurement": "MIC", "setting": "Vibrio anguillarum", "result": "≥ 50", "unit": "µM"}, {"measurement": "MIC", "setting": "Vibrio parahaemolyticus", "result": "≥ 50", "unit": "µM"}, {"measurement": "MIC", "setting": "Vibrio alginolyticus", "result": "≥ 50", "unit": "µM"}, {"measurement": "MIC", "setting": "Staphylococcus aureus", "result": 50, "unit": "µM"}, {"measurement": "MIC", "setting": "Escherichia coli", "result": 50, "unit": "µM"}]}, {"smiles": "CC[C@H](C)[C@H](NC(=O)[C@@H](NC(=O)[C@@H]1CCCN1C(=O)[C@@H](N)C(C)C)[C@@H](C)CC)C(=O)N[C@@H](Cc1ccc(O)cc1)C(=O)N[C@H]1CSSC[C@@H](C(=O)N[C@@H](CCC(N)=O)C(=O)N[C@@H](CCCN=C(N)N)C(=O)N[C@@H](CCSC)C(=O)O)NC(=O)[C@H](CCCCN)NC(=O)CNC(=O)[C@H]([C@@H](C)O)NC(=O)[C@H](CCCN=C(N)N)NC(=O)[C@H](CCCN=C(N)N)NC(=O)[C@H](CC(N)=O)NC1=O", "note": "[VPIIYCNRRTGKCQRM]", "values": [{"measurement": "MIC", "setting": "Trichoderma viride", "result": 28.3, "unit": "µM"}, {"measurement": "MIC", "setting": "[22]", "result": 28.3, "unit": "µM"}, {"measurement": "MIC", "setting": "Escherichia coli D22", "result": 0.849, "unit": "µM"}, {"measurement": "MIC", "setting": "Bacillus subtilis", "result": 28.3, "unit": "µM"}, {"measurement": "MIC", "setting": "Neurospora crassa", "result": 14.1, "unit": "µM"}, {"measurement": "MIC", "setting": "Fusarium culmorum", "result": 14.1, "unit": "µM"}, {"measurement": "MIC", "setting": "Ascochyta pisi", "result": 28.3, "unit": "µM"}, {"measurement": "MIC", "setting": "Aerococcus viridans", "result": 1.73, "unit": "µM"}, {"measurement": "MIC", "setting": "Micrococcus luteus", "result": 3.54, "unit": "µM"}, {"measurement": "MIC", "setting": "Bacillus megaterium", "result": 7.07, "unit": "µM"}, {"measurement": "MIC", "setting": "Klebsiella pneumoniae", "result": 3.54, "unit": "µM"}, {"measurement": "MIC", "setting": "Botrytis cinerea", "result": 14.1, "unit": "µM"}, {"measurement": "MIC", "setting": "Enterobacter cloacae", "result": 7.07, "unit": "µM"}, {"measurement": "MIC", "setting": "Pediococcus acidilactici", "result": 28.3, "unit": "µM"}, {"measurement": "MIC", "setting": "Fusarium haematococcum", "result": 7.07, "unit": "µM"}, {"measurement": "MIC", "setting": "Escherichia coli D31", "result": 0.849, "unit": "µM"}, {"measurement": "MIC", "setting": "Alternaria brassicicola", "result": 7.07, "unit": "µM"}]}]}
